Test results published in patent publication US10786509B2, “Treatment and prevention of atherothrombosis by inhibition of bruton's tyrosine kinase (BTK)” (priority 2016, dated 2020).
Several values for one entry are separate records, joined by “and”; a condition that tells them apart may be missing. Identical values can stand only once. Like-named read-outs stand apart in the source and are kept apart here. Values belong to the compound of their own block, whether it stands above or below them.

Experiments:
[1] = system: platelet aggregation in blood; assay: Platelet aggregation in blood by multiple electrode aggregometry (MEA), static, inhibitor added in vitro; type: cell-based, human; conditions: for collagen-induced platelet aggregation / platelet aggregation stimulated by TRAP, ADP or AA: 2 μM; for collagen-induced platelet aggregation: compared with plaque-induced aggregation; for maximal suppression of plaque-induced platelet aggregation: ACP-196 at 1 μM, ONO/GS-4059 at 2 μM; for IC50: Homo sapiens, Platelet, 15 min pre-incubation, MEA
Method: The first 3 ml of blood drawn into an empty syringe were discarded. Experiments were performed between 30 min and 4 h after venipuncture. […] (Bampalis V G. et al.

[2] = system: platelet deposition onto plaque homogenate, plaque tissue sections or collagen; assay: Platelet aggregation and thrombus formation in flowing whole blood (parallel plate flow chamber), inhibitor added in vitro; type: cell-based, human; conditions: for final platelet aggregate formation onto collagen fibers: up to 2 μM, only delayed at highest concentrations
[3] = system: platelet aggregation in blood; assay: Ex vivo static platelet aggregation (MEA) in two healthy volunteers after oral Imbruvica
[4] = Blood counts, liver enzymes and tolerability in two healthy volunteers after oral Imbruvica
[5] = system: platelet deposition onto plaque homogenate or collagen; assay: Ex vivo platelet thrombus formation under arterial flow in two healthy volunteers after oral Imbruvica; design: species or system human; conditions: shear rate 600/s
Method: For experiments in flowing blood, glass cover slips (Menzel, 24×60 mm, #1.5) coated with collagen (20 μg/ml), plaque homogenates or plaque tissue sections were assembled into parallel plate flow chambers using sticky slides (0.1 Luer sticky slides, Ibidi®, Martinsried, Germany) which had been blocked before with human serum albumin (HSA; 4% in PBS).
Fluorescence microscopy (excitation: 485/25 nm, emission: 528/38 nm) was performed for real time measurement of platelet adhesion and aggregate formation using a 10× air objective (NA 0.4) and a CoolSNAP HQ2 CCD camera (Photometrics, Tucson, USA).

[6] = plaque 833 μg/ml, static, read-out: IC50 for inhibition of plaque-induced platelet aggregation
[7] = plaque-induced platelet aggregation, static
[8] = donor B, after 1 week 140 mg each other day
[9] = donor A, 1 week after low dose Imbruvica (140 mg/d)
[10] = donor A, 3 h after Imbruvica loading dose (3×140 mg)
[11] = donor B, 1 week after low dose Imbruvica (140 mg each other day)
[12] = donor B, 3 h after Imbruvica loading dose (3×140 mg)

IC50 [1, 6]: 1000 nM
Structure (SMILES): CC#CC(=O)N1CC[C@@H](n2c(=O)n(-c3ccc(Oc4ccccc4)cc3)c3c(N)ncnc32)C1.Cl [ONO/GS-4059]
collagen-induced platelet aggregation ([1]; static): equally well inhibited
platelet aggregation stimulated by TRAP, ADP or AA ([1]; static): only marginally
maximal suppression of plaque-induced platelet aggregation ([1]; static): 82%
concentration at which maximal suppression was reached [1, 7]: 2 µM
final platelet aggregate formation onto collagen fibers ([2]; shear rate 600/s): did not compromise

IC50 [1, 6]: 400 nM
Structure (SMILES): CC#CC(=O)N1CCC[C@H]1c1nc(-c2ccc(C(=O)Nc3ccccn3)cc2)c2c(N)nccn12 [acalabrutinib]
collagen-induced platelet aggregation ([1]; static): equally well inhibited
platelet aggregation stimulated by TRAP, ADP or AA ([1]; static): only marginally
maximal suppression of plaque-induced platelet aggregation ([1]; static): 80%
concentration at which maximal suppression was reached [1, 7]: 1 µM
inhibition of platelet aggregation / thrombus formation onto plaque homogenate ([2]; 2 μM, shear rate 600/s): 96%
final platelet aggregate formation onto collagen fibers ([2]; shear rate 600/s): did not compromise

IC50 ([1]; collagen, static, read-out: IC50 for inhibition of collagen-stimulated platelet aggregation): 120 ± 40 nM
IC50 [1, 6]: 180 ± 50 nM
Structure (SMILES): C=CC(=O)N1CCC[C@@H](n2nc(-c3ccc(Oc4ccccc4)cc3)c3c(N)ncnc32)C1 [ibrutinib, 1-[(3R)-3-[4-Amino-3-(4-phenoxyphenyl)-1H-pyrazolo[3,4-d]pyrimidin-1-yl]piperidin-1-yl]prop-2-en-1-one]
inhibition of plaque-induced platelet aggregation at each day tested ([3]; donor A, 140 mg/d during the week, blood taken 23 h or 3 h post dose): > 90%
inhibition of collagen-induced platelet aggregation ([3]; donor A, 3 h after loading dose 3×140 mg): 91%
inhibition of platelet aggregation induced by two plaque homogenate pools ([3]; donor A, 3 h after loading dose 3×140 mg, one value per pool, listed as Imbruvica): 94% and 93%
inhibition of platelet aggregation after collagen stimulation ([3]; donor A, after 1 week 140 mg/d): 91%
reduction of platelet aggregation stimulated by TRAP ([3]; donor A, after 1 week 140 mg/d): 70%
inhibition of platelet aggregation stimulated by two plaque homogenate pools ([3]; donor A, after 1 week 140 mg/d, one value per pool, listed as Imbruvica): 94% and 91%
reduction of platelet aggregation after collagen stimulation ([3]; donor B, 3 h after loading dose 3×140 mg): 58%
reduction of platelet aggregation after plaque stimulation (two pools) ([3]; donor B, 3 h after loading dose 3×140 mg, one value per pool, listed as Imbruvica): 68% and 77%
inhibition of platelet aggregation after collagen stimulation [3, 8]: 82%
reduction of platelet aggregation stimulated by TRAP [3, 8]: 45%
inhibition of platelet aggregation stimulated by two plaque homogenate pools ([3]; donor B, after 1 week 140 mg each other day, one value per pool, listed as Imbruvica): 93% and 91%
platelet aggregation induced by TRAP, ADP or AA ([3]; donors A and B, 3 h after loading dose 3×140 mg): barely inhibited
platelet aggregation induced by ADP or AA ([3]; donors A and B, after 1 week low dose): barely inhibited
reduction of platelet aggregation stimulated by ADP ([1]; 1 μM, ADP 5 μM, static): −13%
reduction of platelet aggregation stimulated by TRAP ([1]; 1 μM, TRAP 5 μM, static): −31%
platelet aggregation upon stimulation with collagen ([1]; 1 μM, collagen, static): almost completely inhibited
spontaneous minimal platelet aggregation in the absence of stimuli ([1]; 1 μM, no stimulus): abolished
platelet aggregation upon stimulation with plaque ([1]; 1 μM, plaque 833 μg/ml, static): almost completely inhibited
concentration at which maximal suppression was reached ([1]; plaque- and collagen-stimulated platelet aggregation, static): 0.5 µM
B-lymphocytes (measured by FACS) ([4]; both donors): rather increased then decreased
HCT [4, 9]: 36.7
Hb [4, 9]: 13.0 g/dL
Lymphocytes [4, 9]: 2900 µL⁻¹
Lymphocytes, % [4, 9]: 45.9%
Monocytes [4, 9]: 500 µL⁻¹
Monocytes, % [4, 9]: 8.1%
Neutrophils [4, 9]: 2900 µL⁻¹
Neutrophils, % [4, 9]: 46%
Platelets [4, 9]: 217000 µL⁻¹
Red blood cells [4, 9]: 4.22e+06 µL⁻¹
HCT [4, 10]: 36.8
Hb [4, 10]: 12.4 g/dL
Lymphocytes [4, 10]: 2600 µL⁻¹
Lymphocytes, % [4, 10]: 44%
Monocytes [4, 10]: 300 µL⁻¹
Monocytes, % [4, 10]: 5.8%
Neutrophils [4, 10]: 2900 µL⁻¹
Neutrophils, % [4, 10]: 50.2%
Platelets [4, 10]: 247000 µL⁻¹
Red blood cells [4, 10]: 4.07e+06 µL⁻¹
HCT [4, 11]: 44
Hb [4, 11]: 16.1 g/dL
Lymphocytes [4, 11]: 2000 µL⁻¹
Lymphocytes, % [4, 11]: 29.5%
Monocytes [4, 11]: 900 µL⁻¹
Monocytes, % [4, 11]: 12.5%
Neutrophils [4, 11]: 3900 µL⁻¹
Neutrophils, % [4, 11]: 58%
Platelets [4, 11]: 160000 µL⁻¹
Red blood cells [4, 11]: 4.91e+06 µL⁻¹
HCT [4, 12]: 47.8
Hb [4, 12]: 17.2 g/dL
Lymphocytes [4, 12]: 1700 µL⁻¹
Lymphocytes, % [4, 12]: 27.0%
Monocytes [4, 12]: 700 µL⁻¹
Monocytes, % [4, 12]: 10.7%
Neutrophils [4, 12]: 4000 µL⁻¹
Neutrophils, % [4, 12]: 62.3%
Platelets [4, 12]: 188000 µL⁻¹
Red blood cells [4, 12]: 5.39e+06 µL⁻¹
liver enzymes ([4]; loading dose or weekly low dose intake, two donors): not altered
platelet aggregation onto collagen ([2]; 0.2 μM and 0.5 μM, high shear rate 1500/s): did not reduce
change of platelet thrombus formation onto plaque homogenate ([2]; 0.2 μM, high shear rate 1500/s): −69±16%
change of collagen-induced platelet aggregation ([2]; 0.2 μM, shear rate 600/s): +1±6%
change of platelet aggregation onto plaque homogenate ([2]; 0.2 μM, shear rate 600/s): −43±27%
change of platelet aggregation onto plaque tissue ([2]; 0.2 μM, shear rate 600/s): −33±23%
change of platelet thrombus formation onto plaque homogenate ([2]; 0.5 μM, high shear rate 1500/s): −93±5%
change of collagen-induced platelet aggregation ([2]; 0.5 μM, shear rate 600/s): +3±9%
change of platelet aggregation onto plaque homogenate ([2]; 0.5 μM, shear rate 600/s): −84±8%
change of platelet aggregation onto plaque tissue ([2]; 0.5 μM, shear rate 600/s): −44±30%
change of final platelet aggregate formation onto collagen fibers ([2]; 1 μM, shear rate 600/s): +8±2%
change of platelet aggregation onto plaque homogenate ([2]; 1 μM, shear rate 600/s): −98±1%
change of platelet thrombus formation onto plaque tissue ([2]; 1 μM, shear rate 600/s): −76±16%
platelet adhesion onto plaque homogenate ([2]; 1 μM, shear rate 600/s): preserving platelet adhesion
plaque-induced thrombus formation under arterial flow ([5]; after 1 week 140 mg/d (donor A) or 140 mg each other day (donor B)): suppressed
plaque-induced thrombus formation under arterial flow ([5]; both donors, 3 h after loading dose 3×140 mg): suppressed
